Where two headings read alike, the source gives them in different places.
Tested on: Mortierella elongata AG77
Assay: Carbon source utilisation in Biolog 96-well plates, formazan formation after tetrazolium addition
Format: cell-based
Conditions: for Metabolized: Metabolized = more formazan formation than a control containing no carbon source, observed visually at 2 h, 24 h, 148 h; for Carbon sources that Mortierella elongata AG77 can metabolize: summary of Table 3
Method: Two 300 mL volumes of growth medium comprising 1 g/L KH2PO4, 1 g/L MgSO4 7H2O, 0.1 g/L CaCl2, 0.02 g/L FeNaEDTA, 0.1 g/L NaCl, and either 1 g/L NH4NO3 or 20 g/L sucrose were prepared. Acidity was adjusted to 5.5 using NaOH and volumes of growth medium were autoclaved 30 min at 121° C. to sterilize. Aliquots of 200 μL of carbon-free medium or nitrogen-free medium were pipetted into each well of a set of 96-well plates previously prepared with lyophilized putative carbon or nitrogen sources (Biolog Inc., Hayward, Calif.). Inocula were prepared by perforating a culture of Mortierella elongata AG77 grown on 20 g/L potato dextrose agar with a 3 mm diameter cork borer and separating the surface mycelial mat from the solid growth medium using tweezers. Each well was inoculated with one inoculum. Cultures were incubated at 21° C. for 24 hours to allow metabolic changes to stabilize, and then 100 μL of 3 g/L tetrazolium chloride in water was added to each well. Formazan formation was observed visually at 2 h, 24 h, and 148 h.
Conclusions were based on rate and intensity of formazan formation using the 3-4,5-dimethylthiazol-2-yl)-2,5-diphenyltetrazolium bromide (MTT) assay. “Metabolized” indicates more formazan formation than a control containing no carbon source, and “Toxic” indicates less formazan formation than a control containing no carbon source. “Metabolized” and “Toxic” assignments are mutually exclusive. In this example, a compound may be “Metabolized” or “Toxic,” but not both.

[1] = compound as carbon source, Toxic = less formazan formation than a control containing no carbon source

Row | Compound | Metabolized (compound as carbon source) | Toxic [1] | Carbon sources that Mortierella elongata AG77 can metabolize | Toxic
1 | C[C@@H](O)[C@H](O)[C@H](O)[C@@H](O)C=O [D-Fucose] | yes | no | can metabolize | –
2 | O=C(O)CC(O)(CC(=O)O)C(=O)O [Citric Acid] | yes | – | can metabolize | –
3 | O=C(O)[C@@H](O)[C@@H](O)[C@H](O)[C@@H](O)C(=O)O [D-Saccharic Acid] | no | – | – | no
4 | CC(O)C(C)O (stereo not shown) [2,3-Butanediol] | no | – | – | no
5 | O=C(O)C(O)C(O)C(=O)O (stereo not shown) [m-Tartaric Acid] | yes | – | can metabolize | –
6 | O=C1O[C@H]([C@@H](O)CO)[C@@H](O)[C@@H]1O [L-Galactonic Acid-γ-Lactone] | yes | no | can metabolize | –
7 | OC[C@H]1O[C@@H]2O[C@H]3[C@H](O)[C@@H](O)[C@@H](O[C@H]4[C@H](O)[C@@H](O)[C@@H](O[C@H]5[C@H](O)[C@@H](O)[C@@H](O[C@H]6[C@H](O)[C@@H](O)[C@@H](O[C@H]7[C@H](O)[C@@H](O)[C@@H](O[C@H]8[C@H](O)[C@@H](O)[C@@H](O[C@H]1[C@H](O)[C@H]2O)O[C@@H]8CO)O[C@@H]7CO)O[C@@H]6CO)O[C@@H]5CO)O[C@@H]4CO)O[C@@H]3CO [β-Cyclodextrin] | no | no | – | –
8 | O=C(CO)[C@@H](O)[C@H](O)[C@@H](O)CO [L-Sorbose] | no | – | – | no
9 | O=C1O[C@@H]([C@H](O)CO)[C@H](O)[C@H]1O [D-Galactonic Acid-γ-Lactone] | yes | no | can metabolize | –
10 | O=C1CCC(C(=O)O)O1 (stereo not drawn) [α-Hydroxy Glutaric Acid-γ-Lactone] | no | no | – | –
11 | N#C[C@H](O[C@@H]1O[C@H](CO[C@@H]2O[C@H](CO)[C@@H](O)[C@H](O)[C@H]2O)[C@@H](O)[C@H](O)[C@H]1O)c1ccccc1 [Amygdalin] | no | no | – | –
12 | O=C(O)CC(=O)O [Malonic Acid] | no | – | – | –
13 | COC1OC(CO)C(O)C(O)C1O [α-Methyl-D-Mannoside] | no | no | – | –
14 | CC(O)CO (stereo not shown) [1,2-Propanediol] | yes | no | can metabolize | –
15 | OC[C@H]1O[C@@H]2O[C@H]3[C@H](O)[C@@H](O)[C@@H](O[C@H]4[C@H](O)[C@@H](O)[C@@H](O[C@H]5[C@H](O)[C@@H](O)[C@@H](O[C@H]6[C@H](O)[C@@H](O)[C@@H](O[C@H]7[C@H](O)[C@@H](O)[C@@H](O[C@H]1[C@H](O)[C@H]2O)O[C@@H]7CO)O[C@@H]6CO)O[C@@H]5CO)O[C@@H]4CO)O[C@@H]3CO [α-Cyclodextrin] | no | no | – | –
16 | O=C(O)CCCCCCCCC(=O)O [Sebacic Acid] | no | – | – | no
17 | O=C(O)[C@H](O)[C@@H](O)C(=O)O [L-Tartaric Acid] | no | – | – | –
18 | OC[C@@H](O)[C@H](O)[C@H](O)[C@@H](O)CO [Dulcitol] | no | – | – | no
19 | O=C[C@H](O)[C@H](O)[C@H](O)CO [D-Ribose] | no | – | – | no
20 | O=CO [Formic Acid] | no | no | – | –
21 | Tween 40 | no | no | – | –
22 | OC[C@@H](O)[C@@H](O)[C@@H](O)CO [Adonitol] | no | – | – | no
23 | C[C@H](O)[C@@H](N)C(=O)O [D-Threonine] | yes | – | can metabolize | no
24 | OC[C@H]1O[C@@H](O[C@H]2[C@H](O)[C@@H](O)[C@H](O)O[C@@H]2CO)[C@H](O)[C@@H](O)[C@@H]1O [D-Cellobiose] | no | – | – | –

Row | Compound | Metabolized (compound as carbon source) | Toxic [1] | Carbon sources that Mortierella elongata AG77 can metabolize | Toxic
25 | O=C(O)C[C@H](O)C(=O)O [L-Malic Acid] | no | no | – | –
26 | OC[C@H]1O[C@@](CO)(O[C@H]2O[C@H](CO)[C@@H](O)[C@H](O)[C@H]2O)[C@@H](O)[C@@H]1O [Sucrose] | no | – | – | no
27 | CC(=O)O [Acetic Acid] | no | – | – | –
28 | C/C(=C/C(=O)O)C(=O)O [Citraconic Acid] | no | – | – | no
29 | CCCCCCCCCC(=O)O [Capric Acid] | no | – | – | no
30 | COC(=O)CCC(=O)O [Mono Methyl Succinate] | – | – | – | no
31 | O=C(O)C[C@@H](O)C(=O)O [D-Malic Acid] | no | no | – | –
32 | O=C(CO)[C@@H](O)[C@H](O)[C@@H](O)C(=O)O [5-Keto-D-Gluconic Acid] | no | no | – | –
33 | OC[C@H]1O[C@@](CO)(O[C@H]2O[C@H](CO)[C@@H](O)[C@H](O)[C@H]2O)[C@@H](O[C@H]2O[C@H](CO)[C@@H](O)[C@H](O)[C@H]2O)[C@@H]1O [D-Melezitose] | no | no | – | –
34 | OC[C@H]1O[C@@H](O[C@H]2[C@H](O)[C@@H](O)[C@@H](O)O[C@@H]2CO)[C@H](O)[C@@H](O)[C@H]1O [α-D-Lactose] | no | – | – | –
35 | O=C(CO)[C@@H](O)[C@H](O)[C@H](O)CO [D-Fructose] | no | – | – | no
36 | NC(=O)CCC(=O)O [Succinamic Acid] | no | no | – | –
37 | C/C=C/C=C/C(=O)O [Sorbic Acid] | no | – | – | no
38 | Laminarin | – | – | – | no
39 | O=P(O)(O)OCC(O)CO (racemic) [D,L-α-Glycerol- Phosphate] | no | no | – | –
40 | Tween 20 | yes | no | can metabolize | –
41 | OC[C@@H](O)[C@@H](O[C@@H]1O[C@H](CO)[C@H](O)[C@H](O)[C@H]1O)[C@H](O)[C@@H](O)CO [Lactitol] | no | – | – | no
42 | O=C[C@H](O)[C@@H](O)[C@@H](O)[C@H](O)C(=O)O [D-Galacturonic Acid] | no | – | – | no
43 | Maltotriose | yes | no | can metabolize | –
44 | CO[C@@H]1O[C@H](C(=O)O)[C@@H](O)[C@H](O)[C@H]1O [β-Methyl-D-Glucuronic Acid] | no | no | – | –
45 | O=C(O)CC(O)C(=O)O (racemic) [D,L-Malic Acid] | no | no | – | –
46 | O=C(O)[C@@H](O)[C@H](O)[C@H](O)[C@@H](O)C(=O)O [Mucic Acid] | no | – | – | no
47 | OC[C@@H](O)[C@@H](O[C@H]1O[C@H](CO)[C@@H](O)[C@H](O)[C@H]1O)[C@H](O)[C@@H](O)CO [Maltitol] | no | no | – | –
48 | O=C(O)CC(CC(=O)O)C(=O)O [Tricarballylic Acid] | yes | – | can metabolize | no
